# In paper PMC10783051 (Microbiology Spectrum, 2023):
# System: Streptomyces venezuelae ATCC 10712
# Assay: In planta co-inoculation on tomato roots, UPLC-MS of rhizosphere extracts
# Details: tomato roots on Hoagland agar, 7 days at 22°C, UPLC-MS of agar near the roots, four biological replicates
# Procedure: For the in planta studies, tomato seeds (Solanum lycopersicum var. Moneymaker) were sterilized following the protocol described by ([26]). Briefly, tomato seeds were primarily sterilized in 70% ethanol (vol/vol) by gently shaking for 2 min. Further, the ethanol was removed and the seeds were added to 50 mL of the sterilization solution [4.5 mL of bleach containing 9.5% (vol/vol) of active chlorine, 0.01 g of Tween 80, and 45.5 mL of sterile water] and gently shaken for 10 min. Seeds were thereafter washed 10 times with water to eliminate sterilization solution residues. […]
# All UPLC-MS analyses were performed using an Agilent 1290 Infinity II coupled with a diode array detector and a mass detector (Jet Stream ESI-Q-TOF 6530) in positive mode with the parameters set up as follows: capillary voltage of 3.5 kV, nebulizer pressure of 35 lb/in^2, drying gas of 8 L/min, drying gas temperature of 300°C, flow rate of sheath gas of 11 L/min, sheath gas temperature of 350°C, fragmentor voltage of 175 V, skimmer voltage of 65 V, and octopole radiofrequency of 750 V. Accurate mass spectra were recorded in the m/z range of 300–1,700. […]
substance,measurement,value
iturin,linear forms in rhizosphere extracts upon co-inoculation of Bv with Sv,high proportion of linear
